Results published in US20090221560A1, “Pharmaceutical Formulation” (priority 2005, published 2009).

Experiments:
5-HT-2 receptor = target: T1, 5-HT-2 receptor (Rattus norvegicus, UniProt P14842); test: Displacement of H-spiperone from binding sites in the rat frontal cortex
T1 construct: from tissue; host or cells: rat frontal cortex
Excerpt: (§1) In addition, the compound of formula I and of formula II also show good activity in in vitro binding assays involving binding to neural receptors. […] The compounds are also active at the 5-HT-IC receptor.

dopamine D-2 receptor = dopamine D-2 receptor (Homo sapiens, UniProt P14416); test: 3H-spiperone binding assay
dopamine D-2 receptor, sequence (P14416 whole entry): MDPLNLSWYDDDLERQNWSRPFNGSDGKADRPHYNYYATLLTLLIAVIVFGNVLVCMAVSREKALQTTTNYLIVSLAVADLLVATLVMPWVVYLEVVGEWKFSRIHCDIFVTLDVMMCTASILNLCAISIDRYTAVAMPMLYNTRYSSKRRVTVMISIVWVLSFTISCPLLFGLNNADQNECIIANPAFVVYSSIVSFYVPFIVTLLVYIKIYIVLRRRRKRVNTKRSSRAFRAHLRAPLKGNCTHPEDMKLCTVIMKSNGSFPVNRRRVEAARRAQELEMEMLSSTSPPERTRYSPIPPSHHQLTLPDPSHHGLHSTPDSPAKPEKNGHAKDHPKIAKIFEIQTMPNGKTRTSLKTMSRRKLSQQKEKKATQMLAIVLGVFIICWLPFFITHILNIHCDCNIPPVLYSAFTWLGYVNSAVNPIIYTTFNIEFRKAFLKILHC
Excerpt: as §1

5-HT-IC receptor = target: T2, 5-HT-IC receptor (Homo sapiens, UniProt P28335); test: Activity at the 5-HT-IC receptor; type: binding
T2 sequence (P28335 33-458): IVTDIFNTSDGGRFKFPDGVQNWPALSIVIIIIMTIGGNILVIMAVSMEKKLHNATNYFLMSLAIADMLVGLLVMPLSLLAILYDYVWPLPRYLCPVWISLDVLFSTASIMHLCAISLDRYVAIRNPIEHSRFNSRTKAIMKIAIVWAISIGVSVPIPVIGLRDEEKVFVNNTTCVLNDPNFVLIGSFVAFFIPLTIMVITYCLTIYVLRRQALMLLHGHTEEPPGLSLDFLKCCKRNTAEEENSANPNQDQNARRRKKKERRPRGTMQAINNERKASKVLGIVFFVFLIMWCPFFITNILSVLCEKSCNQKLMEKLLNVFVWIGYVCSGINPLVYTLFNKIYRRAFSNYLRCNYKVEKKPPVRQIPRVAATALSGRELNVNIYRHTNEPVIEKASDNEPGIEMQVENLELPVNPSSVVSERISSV
Excerpt: as §1

rats [1] = test: Conditioned avoidance response in rats; type: in vivo; conditions: Rattus norvegicus, read-out: ED50, inhibition of conditioned avoidance response
rats [2] = test: Catalepsy induction in rats; type: in vivo; conditions: at the low dose inhibiting conditioned avoidance response

T1 sequence (P14842 whole entry): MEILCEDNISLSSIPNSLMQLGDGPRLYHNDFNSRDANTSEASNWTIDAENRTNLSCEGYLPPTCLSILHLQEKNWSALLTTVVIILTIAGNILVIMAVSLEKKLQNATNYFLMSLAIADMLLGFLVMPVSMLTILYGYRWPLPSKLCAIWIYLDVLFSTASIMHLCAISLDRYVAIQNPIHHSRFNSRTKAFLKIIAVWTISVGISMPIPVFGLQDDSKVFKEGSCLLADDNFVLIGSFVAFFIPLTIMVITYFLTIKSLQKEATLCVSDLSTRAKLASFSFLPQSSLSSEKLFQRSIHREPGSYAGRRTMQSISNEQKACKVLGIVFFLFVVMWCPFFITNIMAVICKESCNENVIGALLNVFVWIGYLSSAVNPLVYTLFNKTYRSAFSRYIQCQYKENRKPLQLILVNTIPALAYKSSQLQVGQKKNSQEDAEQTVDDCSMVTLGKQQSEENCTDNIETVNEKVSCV

| Structure (SMILES) | Concentration displacing H-spiperone at the 5-HT-2 receptor (5-HT-2 receptor) | IC50 (dopamine D-2 receptor) [nM] | Activity at the 5-HT-IC receptor (5-HT-IC receptor) | ED50 (rats [1]) [mg/kg] | Catalepsy (rats [2]) |
| --- | --- | --- | --- | --- | --- |
| Cc1cc2c(s1)Nc1ccccc1N=C2N1CC[N+](C)(CCl)CC1 [formula I, 2-methyl-4-(4-methyl-4-chloromethyl-1-piperazinyl)-10H-thieno-[2,3-b][1,5]-benzodiazepine] | low nanomolar concentrations | < 1000 | active | ~5 | without inducing catalepsy |
| CC(=O)N1CCN(C2=Nc3ccccc3Nc3sc(C)cc32)CC1 [formula II, 2-methyl-4-(4-acetyl-1-piperazinyl)-10H-thieno-[2,3-b][1,5]-benzodiazepine] | low nanomolar concentrations | < 1000 | active | ~5 | without inducing catalepsy |
